As a reminder, the Ki is the dissociation constant of the complex between target and ligand, obtained from inhibition or displacement. The EC50 is the midpoint of the concentration-response curve. A lower EC50 goes with greater potency.

Peptide text beside a SMILES is read from it.

T1 sequence (P32245 whole entry): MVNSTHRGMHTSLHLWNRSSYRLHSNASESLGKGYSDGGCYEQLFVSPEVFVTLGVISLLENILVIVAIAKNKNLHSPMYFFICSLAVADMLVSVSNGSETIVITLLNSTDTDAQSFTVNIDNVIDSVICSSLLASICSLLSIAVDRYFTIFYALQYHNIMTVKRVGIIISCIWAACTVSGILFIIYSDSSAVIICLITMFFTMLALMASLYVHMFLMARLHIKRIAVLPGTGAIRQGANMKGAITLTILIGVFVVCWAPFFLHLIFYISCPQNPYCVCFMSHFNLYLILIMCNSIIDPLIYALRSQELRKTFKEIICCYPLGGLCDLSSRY

The first test has as its target T1, hMC4-R (Homo sapiens (Human), UniProt P32245). The experiment in a line: Competitive binding assay using Eu-NDP-α-MSH (TRF), hMC4-R membranes. The settings on record: averaged; Eu-NDP-α-MSH (values marked *); read-out: MC4-R Ki. Here is the method:
Alternatively, a competitive inhibition binding assay was performed employing Eu-NDP-α-MSH (PerkinElmer Life Sciences catalog No. AD0225) with determination by time-resolved fluorometry (TRF) of the lanthanide chelate. […] After incubation for 90 minutes at 37° C., the reaction was stopped by filtration over AcroWell 96-well filter plates (Pall Life Sciences). The filter plates were washed 4 times with 200 μL of ice-cold phosphate-buffered saline. DELFIA Enhancement solution (PerkinElmer Life Sciences) was added to each well. […] Each assay was conducted in duplicate and mean values were utilized. Ki values were determined by curve-fitting with Graph-Pad Prism® software using a one-site fixed-slope competition binding model.
For the compound `CCNC(=O)[C@@H]1CCCNC(=O)CC[C@H](NC(=O)[C@H](CCCNC(=N)N)NC(C)=O)C(=O)N[C@@H](Cc2c[nH]cn2)C(=O)N[C@H](Cc2ccccc2)C(=O)N[C@@H](CCCNC(=N)N)C(=O)N[C@@H](Cc2c[nH]c3ccccc23)C(=O)N1` [compound 109, Ac-Arg-cyclo(Glu-His- D-Phe-Arg-Trp-Orn)- NH-Et] (HELM PEPTIDE1{[ac].R.E.H.[dF].R.W.[Orn].[CCN[*:1]]}$PEPTIDE1,PEPTIDE1,3:R3-8:R3$$$V2.0), the Ki worked out at 0.006 µM.

For the compound `CC(=O)N[C@@H](CCCNC(=N)N)C(=O)N[C@H]1CCCCNC(=O)C[C@@H](C(N)=O)NC(=O)[C@H](Cc2c[nH]c3ccccc23)NC(=O)[C@H](CCCNC(=N)N)NC(=O)[C@@H](Cc2ccccc2)NC(=O)[C@H](Cc2c[nH]cn2)NC1=O` [compound 96, Ac-Arg-cyclo(Lys-His- D-Phe-Arg-Trp-Asp)- NH2] (HELM PEPTIDE1{[ac].R.K.H.[dF].R.W.D.[am]}$PEPTIDE1,PEPTIDE1,3:R3-8:R3$$$V2.0; bridges inferred), the Ki is 0.001 µM.

In the case of `CC(=O)N[C@@H](CCCNC(=N)N)C(=O)N[C@H]1CCC(=O)NCCC[C@@H](C(=O)NC2CC2)NC(=O)[C@H](Cc2c[nH]c3ccccc23)NC(=O)[C@H](CCCNC(=N)N)NC(=O)[C@@H](Cc2ccccc2)NC(=O)[C@H](Cc2c[nH]cn2)NC1=O` [compound 110, Ac-Arg-cyclo(Glu-His- D-Phe-Arg-Trp-Orn)- NH-cyclopropyl] (HELM PEPTIDE1{[ac].R.E.H.[dF].R.W.[Orn].[C1CC1N[*:1]]}$PEPTIDE1,PEPTIDE1,3:R3-8:R3$$$V2.0), the Ki turned out to be 0.001 µM.

For the compound `CC(=O)N[C@@H](CCCNC(=N)N)C(=O)N[C@H]1CC(=O)NCCCC[C@@H](C(N)=O)NC(=O)[C@H](Cc2c[nH]c3ccccc23)NC(=O)[C@H](CCCNC(=N)N)NC(=O)[C@@H](Cc2ccccc2)NC(=O)[C@H](CC(C)C)NC1=O` [compound 12, Ac-Arg-cyclo(Asp-Leu- D-Phe-Arg-Trp-Lys)- NH2] (HELM PEPTIDE1{[ac].R.D.L.[dF].R.W.K.[am]}$PEPTIDE1,PEPTIDE1,3:R3-8:R3$$$V2.0), the Ki came out at 0.033 µM.

On to `CC(=O)N[C@@H](CCCNC(=N)N)C(=O)N[C@H]1CC(=O)NCCCC[C@@H](C(N)=O)NC(=O)[C@H](Cc2c[nH]c3ccccc23)NC(=O)[C@H](CCCNC(=N)N)NC(=O)[C@@H](Cc2ccccc2)NC(=O)[C@@H]2C[C@@H](OCc3ccccc3)CN2C1=O` [compound 15, Ac-Arg-cyclo(Asp- Hyp(Bzl)-D-Phe-Arg- Trp-Lys)-NH2], for which the Ki was determined as 0.0007 µM.

Turning to `CC(=O)N[C@H](CCCNC(=N)N)C(=O)N[C@H]1CC(=O)NCCCC[C@@H](C(N)=O)NC(=O)[C@H](Cc2c[nH]c3ccccc23)NC(=O)[C@H](CCCNC(=N)N)NC(=O)[C@@H](Cc2ccccc2)NC(=O)[C@@H]2C[C@@H](Cc3ccccc3)CN2C1=O` [compound 72, Ac-D-Arg-cyclo(Asp- Pro(4R-Bzl)-D-Phe-Arg- Trp-Lys)-NH2], the Ki stood at 0.002 µM.

For `CC(=O)N[C@@H](CCCNC(=N)N)C(=O)N[C@H]1CC(=O)NCCCC[C@@H](C(N)=O)NC(=O)[C@H](Cc2c[nH]c3ccccc23)NC(=O)[C@H](CCCCN)NC(=O)[C@@H](Cc2ccccc2)NC(=O)[C@H](Cc2c[nH]cn2)NC1=O` [compound 6, Ac-Arg-cyclo(Asp-His- D-Phe-Lys-Trp-Lys)- NH2] (HELM PEPTIDE1{[ac].R.D.H.[dF].K.W.K.[am]}$PEPTIDE1,PEPTIDE1,3:R3-8:R3$$$V2.0), the Ki is 0.533 µM.

Consider `CC(=O)N[C@@H](CCCNC(=N)N)C(=O)N[C@H]1CC(=O)NCCCC[C@@H](C(N)=O)NC(=O)[C@H](Cc2c[nH]c3ccccc23)NC(=O)[C@H](CCCCN)NC(=O)[C@@H](Cc2ccccc2)NC(=O)[C@H](CCCCN)NC1=O` [compound 7, Ac-Arg-cyclo(Asp-Lys- D-Phe-Lys-Trp-Lys)- NH2] (HELM PEPTIDE1{[ac].R.D.K.[dF].K.W.K.[am]}$PEPTIDE1,PEPTIDE1,3:R3-8:R3$$$V2.0), for which the Ki was determined as 2.96 µM.

On to `CC(=O)N[C@H](CCCCN)C(=O)N[C@H]1CCCNC(=O)CC[C@@H](C(N)=O)NC(=O)[C@H](Cc2c[nH]c3ccccc23)NC(=O)[C@H](CCCNC(=N)N)NC(=O)[C@@H](Cc2ccccc2)NC(=O)[C@H](Cc2c[nH]cn2)NC1=O` [compound 133, Ac-D-Lys-cyclo(Orn- His-D-Phe-Arg-Trp- Glu)-NH2], for which the Ki stood at 0.008 µM.

For the compound `CC(=O)N[C@@H](CCCNC(=N)N)C(=O)N[C@H]1CC(=O)NCCCC[C@@H](C(N)=O)NC(=O)[C@H](Cc2c[nH]c3ccccc23)NC(=O)[C@H](CCCNC(=N)N)NC(=O)[C@@](C)(Cc2ccccc2)NC(=O)[C@H](Cc2c[nH]cn2)NC1=O` [compound 60, Ac-Arg-cyclo(Asp-His- D-(alpha-Me)Phe-Arg- Trp-Lys)-NH2], the Ki was found to be 0.047 µM.

In the case of `CC(=O)N[C@@H](CCCNC(=N)N)C(=O)N[C@H]1CC(=O)NCCCC[C@@H](C(N)=O)NC(=O)[C@H](Cc2c[nH]c3ccccc23)NC(=O)[C@H](CCCNC(=N)N)NC(=O)[C@@H](Cc2ccccc2)NC(=O)[C@H](CN)NC1=O` [compound 62, Ac-Arg-cyclo(Asp-Dap- D-Phe-Arg-Trp-Lys)- NH2], the Ki is 0.08 µM.

Take `CC(=O)N[C@@H](CCCNC(=N)N)C(=O)N[C@H]1CC(=O)NCCCC[C@@H](C(N)=O)NC(=O)[C@H](Cc2c[nH]c3ccccc23)NC(=O)[C@H](CCCCN)NC(=O)[C@@H](Cc2ccccc2)NC(=O)[C@H](C)NC1=O` [compound 8, Ac-Arg-cyclo(Asp-Ala- D-Phe-Lys-Trp-Lys)- NH2] (HELM PEPTIDE1{[ac].R.D.A.[dF].K.W.K.[am]}$PEPTIDE1,PEPTIDE1,3:R3-8:R3$$$V2.0): the Ki was found to be 3.02 µM.

In the case of `CSCC[C@@H]1NC(=O)[C@@H](NC(=O)[C@H](CCCNC(=N)N)NC(C)=O)CC(=O)NCCCC[C@@H](C(N)=O)NC(=O)[C@H](Cc2c[nH]c3ccccc23)NC(=O)[C@H](CCCNC(=N)N)NC(=O)[C@@H](Cc2ccccc2)NC1=O` [compound 38, Ac-Arg-cyclo(Asp-Met- D-Phe-Arg-Trp-Lys)- NH2] (HELM PEPTIDE1{[ac].R.D.M.[dF].R.W.K.[am]}$PEPTIDE1,PEPTIDE1,3:R3-8:R3$$$V2.0), the Ki is 0.035 µM.

For the compound `CC(=O)N[C@@H](CCCNC(=N)N)C(=O)N[C@H]1CC(=O)NCCCC[C@@H](C(N)=O)NC(=O)[C@H](Cc2c[nH]c3ccccc23)NC(=O)[C@H](CCCNC(=N)N)NC(=O)[C@@H](Cc2ccccc2)NC(=O)[C@H](CNC(=O)[C@H]2CCNC2)NC1=O` [compound 118, Ac-Arg-cyclo(Asp- Dap(betaPro)-D-Ph- Arg-Trp-Lys)-NH2], the Ki amounted to 0.145 µM.

For `CC(=O)N[C@H](CCCNC(=N)N)C(=O)N[C@H]1CCC(=O)NCCC[C@@H](C(=O)O)NC(=O)[C@H](Cc2c[nH]c3ccccc23)NC(=O)[C@H](CCCNC(=N)N)NC(=O)[C@@H](Cc2ccccc2)NC(=O)[C@H](Cc2c[nH]cn2)NC1=O` [compound 85, Ac-D-Arg-cyclo(Glu- His-D-Phe-Arg-Trp- Orn)-OH] (HELM PEPTIDE1{[ac].[dR].E.H.[dF].R.W.[Orn]}$PEPTIDE1,PEPTIDE1,3:R3-8:R3$$$V2.0), the Ki turned out to be 0.04 µM.

With `CC(=O)N[C@@H](CCCNC(=N)N)C(=O)N[C@H]1CCC(=O)NCCC[C@@H](C(=O)O)NC(=O)[C@H](Cc2c[nH]c3ccccc23)NC(=O)[C@H](CCCNC(=N)N)NC(=O)[C@@H](Cc2ccccc2)NC(=O)[C@H](CCCCN)NC1=O` [compound 89, Ac-Arg-cyclo(Glu-Lys- D-Phe-Arg-Trp-Orn)- OH] (HELM PEPTIDE1{[ac].R.E.K.[dF].R.W.[Orn]}$PEPTIDE1,PEPTIDE1,3:R3-8:R3$$$V2.0), the Ki was determined as 0.113 µM.

Another test has as its target T1, hMC4-R. The experiment in a line: Assay for agonist activity: cAMP accumulation in HEK-293 cells that express hMC4-R.
Settings: not given
(In general: cAMP levels reflect the balance of adenylyl cyclase and phosphodiesterase activity.)
The compound `CC(=O)N[C@H](CCCNC(=N)N)C(=O)N[C@H]1CC(=O)NCCCC[C@@H](C(N)=O)NC(=O)[C@H](Cc2c[nH]c3ccccc23)NC(=O)[C@H](CCCNC(=N)N)NC(=O)[C@@H](Cc2ccccc2)NC(=O)[C@H](CCC(N)=O)NC1=O` [compound 71, Ac-D-Arg-cyclo(Asp- Gln-D-Phe-Arg-Trp- Lys)-NH2] came in with an EC50 of 0.002 µM.

The same test, now with this note: agonist = intrinsic activity 70% or higher; partial agonist 10-70%.
Turning to `CC(=O)N[C@@H](CCCNC(=N)N)C(=O)N[C@H]1CCNC(=O)CCC[C@@H](C(N)=O)NC(=O)[C@H](Cc2c[nH]c3ccccc23)NC(=O)[C@H](CCCNC(=N)N)NC(=O)[C@@H](Cc2ccccc2)NC(=O)[C@H](Cc2c[nH]cn2)NC1=O` [compound 128, Ac-Arg-cyclo(Dab-His- D-Phe-Arg-Trp-hGlu)- NH2], the “functional status at MC4-R (agonist / partial agonist)” value was “agonist”.

The target of the next test is T1, hMC4-R. The experiment in a line: Competitive inhibition binding assay using [I125]-NDP-α-MSH, hMC4-R membranes. The settings on record: averaged; [I125]-NDP-α-MSH (values not marked *); read-out: MC4-R Ki. Here is the method: A competitive inhibition binding assay is performed using membrane homogenates prepared from HEK-293 cells that express recombinant hMC4-R, hMC3-R, or hMC5-R, and from B-16 mouse melanoma cells (containing endogenous MC1-R). In some instances, HEK-293 cells that express recombinant hMC1-R were employed. In the examples that follow, all MC3-R, MC4-R and MC5-R values are for human recombinant receptors. […] Membrane homogenates were incubated with 0.2 nM (for hMC4-R) 0.4 nM (for MC3-R and MC5-R) or 0.1 nM (for mouse B16 MC1-R or hMC1-R) [I^125]-NDP-α-MSH (Perkin Elmer) and increasing concentrations of test peptides of the present invention in buffer containing 25 mM HEPES buffer (pH 7.5) with 100 mM NaCl, 2 mM CaCl2, 2 mM MgCl2, 0.3 mM 1,10-phenanthroline, and 0.2% bovine serum albumin. After incubation for 60 minutes at 37° C., the assay mixture was filtered and the membranes washed three times with ice-cold buffer. Filters were dried and counted in a gamma counter for bound radioactivity. […] Maximal specific binding (100%) was defined as the difference in radioactivity (cpm) bound to cell membranes in the absence and presence of 1 μM NDP-α-MSH. […] Each assay was conducted in triplicate and the actual mean values are described, with results less than 0% reported as 0%. Ki values for test peptides of the present invention were determined using Graph-Pad Prism® curve-fitting software.
Regarding `CC(=O)N[C@H](CCCNC(=N)N)C(=O)N[C@H]1CC(=O)NCCCC[C@@H](C(N)=O)NC(=O)[C@H](Cc2c[nH]c3ccccc23)NC(=O)[C@H](CCCNC(=N)N)NC(=O)[C@@H](Cc2ccccc2)NC(=O)[C@H](CCC(N)=O)NC1=O` [compound 71, Ac-D-Arg-cyclo(Asp- Gln-D-Phe-Arg-Trp- Lys)-NH2], the Ki is 0.045 µM.

Still in this test, the particulars now being: read-out: hMC4-R (Ki).
Turning to `CC(=O)N[C@H](CCCNC(=N)N)C(=O)N[C@H]1CC(=O)NCCCC[C@@H](C(N)=O)NC(=O)[C@H](Cc2c[nH]c3ccccc23)NC(=O)[C@H](CCCNC(=N)N)NC(=O)[C@@H](Cc2ccccc2)NC(=O)[C@H](CCC(N)=O)NC1=O` [compound 71, Ac-D-Arg-cyclo(Asp- Gln-D-Phe-Arg-Trp- Lys)-NH2], the Ki amounted to 0.045 µM.
